Assay results published in article PMC11530827, “Characterization of a cytochrome P450 that catalyzes the O-demethylation of lignin-derived benzoates” (The Journal of Biological Chemistry, 2024).
pKd: −log10 of the molar value.

Columns and labels:
[1] = target: T1, PbdA R84M (Rhodococcus jostii, UniProt Q0SCI3, R82M); experiment: Substrate binding to PbdA R84M variant by spectral titration; set-up: species or system Rhodococcus jostii RHA1
T1 construct: hexaHis (N, cleaved yes); made in house; host or cells: PbdA variant: E. coli BL-21 λ (DE3); PbdB: Rhodococcus jostii RHA1
Procedure: (§1) UV-visible spectroscopy was conducted with a Cary 60 spectrophotometer equipped with a thermostatted cuvette holder at 25 °C. Scans of purified proteins diluted in 20 mM Mops, I = 0.1 M, pH 7.2 were taken between 250 and 700 nm. Heme concentration was calculated as described previously ([35]). Carbon monoxide binding was determined by reduction of PbdA diluted in 20 mM Mops, I = 0.1 M, pH 7.2 as above by a few grains of […]. CO was bubbled into the reduced enzyme for approximately 60 s at a rate of one bubble per second. Dissociation constants (Kd) were determined by titration of ligands diluted into enzyme buffer from 1 M stocks prepared in dimethyl sulfoxide into PbdA diluted in 20 mM Mops, I = 0.1 M, pH 7.2. Spectra take upon addition of substrate were subtracted from the spectrum of the enzyme, and peak-to-trough distance was plotted by ligand concentration. Kd values were determined by fitting a hyperbolic equation to the data as described previously ([23], [36]). The proportion of high-spin heme iron was determined using the approximate peak-to-trough extinction coefficient (ε ≈ 100 mM^−1 cm^−1) ([36]).

[2] = target: T2, PbdA S87A (Rhodococcus jostii, UniProt Q0SCI3, S85A); experiment: Substrate binding to PbdA S87A variant by spectral titration; set-up: species or system Rhodococcus jostii RHA1
T2 construct: hexaHis (N, cleaved yes); made in house; host or cells: PbdA variant: E. coli BL-21 λ (DE3); PbdB: Rhodococcus jostii RHA1
Procedure: as §1

[3] = target: T3, PbdA S237A (Rhodococcus jostii, UniProt Q0SCI3, S235A); experiment: Substrate binding to PbdA S237A variant by spectral titration; set-up: species or system Rhodococcus jostii RHA1
T3 construct: hexaHis (N, cleaved yes); made in house; host or cells: PbdA variant: E. coli BL-21 λ (DE3); PbdB: Rhodococcus jostii RHA1
Procedure: as §1

[4] = target: T1, PbdA R84M; experiment: Activity and coupling assay of PbdA R84M variant with PbdB; assay type: biochemical, Rhodococcus jostii RHA1
Procedure: (§2) For activity measurements 0.25 to 1 μM of PbdA and PbdB were combined in a 200 μl cuvette in 20 mM Mops, pH 7.2 with substrate diluted in the same buffer. NADH was added to 350 μM to initiate the reaction. For HPLC analysis, enzymatic reactions were acidified by adding acetic acid to 10% final concentration, centrifuged (16,000×g for 10 min), and filtered through a 0.2 μm polytetrafluoroethylene membrane. Samples were run over a Luna 5 μm C18(2) 100 Å 150 × 3 mm column (Phenomenex) at 0.7 ml min^−1 by a Waters 2695 separation HPLC module. Samples were eluted with a 16.8 ml linear gradient from 1% methanol plus 0.1% formic acid in water to 100% methanol plus 0.1% formic acid and monitored at 280 nm with a Waters 2996 photodiode array detector. Concentrations were determined by interpolation on a standard curve of 0 to 1 mM of authentic standard. NADH concentration was measured by absorbance at 340 nm, ε = 6.22 mM^-1 cm^-1. Coupling was calculated from the ratio of rate of aromatic turnover, as determined by HPLC, and the rate of NADH oxidation, determined spectroscopically. Buffer ionic strength was adjusted by addition of NaCl, as appropriate. Apparent steady-state kinetic parameters were calculated by fitting Michaelis–Menten equations to initial velocity of reactions at various concentrations of aromatic substrate (LEONORA).
(§3) ^aExperiments were performed using air-saturated MOPS (I = 0.1 M), pH 7.2, at 25 °C. The rate of aromatic substrate turnover was based on the appearance of O-demethylated product. Standard deviation is shown in parentheses.

[5] = target: T2, PbdA S87A; experiment: Activity and coupling assay of PbdA S87A variant with PbdB; assay type: biochemical, Rhodococcus jostii RHA1
Procedure: as §2, §3

[6] = target: T3, PbdA S237A; experiment: Activity and coupling assay of PbdA S237A variant with PbdB; assay type: biochemical, Rhodococcus jostii RHA1
Procedure: as §2, §3

[7] = target: T4, PbdA S87A/S237A (Rhodococcus jostii, UniProt Q0SCI3, S235A/S85A); experiment: Activity and coupling assay of PbdA S87A/S237A variant with PbdB; assay type: biochemical, Rhodococcus jostii RHA1
T4 construct: hexaHis (N, cleaved yes); made in house; host or cells: PbdA variant: E. coli BL-21 λ (DE3); PbdB: Rhodococcus jostii RHA1
Procedure: as §2, §3

[8] = target: T5, PbdA (Rhodococcus jostii, UniProt Q0SCI3); experiment: Substrate binding to PbdA (WT) by type I spectral shift titration; set-up: hexaHis (N, cleaved yes); made in house; host or cells: PbdA: E. coli BL-21 λ (DE3); PbdB: Rhodococcus jostii RHA1; settings: WT PbdA
T5 sequence (Q0SCI3 1-400): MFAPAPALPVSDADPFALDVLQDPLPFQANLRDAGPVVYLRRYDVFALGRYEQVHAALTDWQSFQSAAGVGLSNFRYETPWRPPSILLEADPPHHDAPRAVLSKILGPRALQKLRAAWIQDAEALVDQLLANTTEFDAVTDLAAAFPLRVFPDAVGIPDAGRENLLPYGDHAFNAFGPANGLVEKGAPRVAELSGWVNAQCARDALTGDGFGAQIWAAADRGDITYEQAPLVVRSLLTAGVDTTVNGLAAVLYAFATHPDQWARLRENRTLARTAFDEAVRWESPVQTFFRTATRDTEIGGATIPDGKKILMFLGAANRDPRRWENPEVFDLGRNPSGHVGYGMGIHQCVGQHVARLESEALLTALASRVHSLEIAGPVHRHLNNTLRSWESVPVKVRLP
Procedure: The affinity of PbdA for various LDACs was measured by the type I spectral shift upon titration of aromatic compound (Fig. 2). This shift occurs as the compound displaces a water coordinated to the heme iron, initiating a spin state transition in the latter from a low spin, hexacoordinate, to a high spin, pentacoordinate form.
Figure 2 Substrate binding of PbdA. A, difference spectra of PbdA titrated with 1 to 50 μM p-MBA from the substrate-free enzyme. Darker colors indicate higher concentration of p-MBA. Spectra were collected after each addition of substrate to 1 μM enzyme in 20 mM Mops, I = 0.1 M, pH 7.2. B, binding isotherm of PbdA and p-MBA. The fitted curve represents a simple hyperbola. p-MBA, para-methoxybenzoate.
as §1

[9] = air-saturated MOPS (I = 0.1 M), pH 7.2, 25 °C
[10] = appearance of O-demethylated product

T1 sequence (Q0SCI3 entry or part of it R82M): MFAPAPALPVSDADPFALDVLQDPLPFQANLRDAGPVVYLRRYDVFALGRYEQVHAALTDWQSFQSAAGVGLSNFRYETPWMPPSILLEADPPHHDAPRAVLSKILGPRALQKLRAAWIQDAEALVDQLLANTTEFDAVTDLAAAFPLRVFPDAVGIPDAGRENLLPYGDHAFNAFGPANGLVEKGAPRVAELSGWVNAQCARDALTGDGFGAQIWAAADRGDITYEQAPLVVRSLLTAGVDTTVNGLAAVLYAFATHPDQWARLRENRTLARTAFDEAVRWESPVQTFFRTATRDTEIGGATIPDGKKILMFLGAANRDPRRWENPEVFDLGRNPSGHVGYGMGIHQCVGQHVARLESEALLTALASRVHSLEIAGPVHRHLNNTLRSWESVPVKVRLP
T3 sequence (Q0SCI3 entry or part of it S235A): as the sequence (Q0SCI3 entry or part of it R82M) above, with M82R, S235A counted along it
T4 sequence (Q0SCI3 entry or part of it S85A/S235A): as the sequence (Q0SCI3 entry or part of it R82M) above, with M82R, S85A, S235A counted along it
T2 sequence (Q0SCI3 entry or part of it S85A): as the sequence (Q0SCI3 entry or part of it R82M) above, with M82R, S85A counted along it

COc1ccc(C(=O)O)cc1 [p-MBA, p-methoxybenzoate]
pKd [1]: 4.44 | ΔG° ([1]; R84M variant, binding energy): -6.1 kcal/mol | ΔΔG° ([1]; R84M variant, comparison of ΔG° of variant to wild type): 1.3 kcal/mol | pKd [2]: 4.30 | ΔG° ([2]; S87A variant, binding energy): -5.9 kcal/mol | ΔΔG° ([2]; S87A variant, comparison of ΔG° of variant to wild type): 1.5 kcal/mol | pKd [3]: 4.54 | ΔG° ([3]; S237A variant, binding energy): -6.2 kcal/mol | ΔΔG° ([3]; S237A variant, comparison of ΔG° of variant to wild type): 1.2 kcal/mol | Coupling [4]: 70 (9) % | Specific activity ([4]; O-demethylation): 1100 (200) U μg P450^-1 | NADH depletion rate [4, 9]: 1700 (200) U mg P450^-1 | Rate of Aromatic turnover [4, 10]: 1100 (200) U mg P450^-1 | Coupling [5]: 45 (7) % | Specific activity ([5]; O-demethylation): 800 (200) U μg P450^-1 | NADH depletion rate [5, 9]: 1700 (200) U mg P450^-1 | Rate of Aromatic turnover [5, 10]: 800 (200) U mg P450^-1 | Coupling [6]: 80 (2) % | Specific activity ([6]; O-demethylation): 2600 (400) U μg P450^-1 | NADH depletion rate [6, 9]: 3600 (600) U mg P450^-1 | Rate of Aromatic turnover [6, 10]: 2600 (400) U mg P450^-1 | Coupling [7]: 40 (2) % | Specific activity ([7]; O-demethylation): 180 (10) U μg P450^-1 | NADH depletion rate [7, 9]: 400 (30) U mg P450^-1 | Rate of Aromatic turnover [7, 10]: 170 (10) U mg P450^-1 | pKd ([8]; 20 mM Mops, I = 0.1 M, pH 7.2, 25 °C, SD in parentheses, read-out: Kd): 5.42 | %High-spin (percent of heme iron in high-spin state) ([8]; on substrate binding): >99%
